{
  "source": "patent US20240269139A1",
  "about": "“COMPOUNDS FOR TARGETED PROTEIN DEGRADATION OF KINASES” (DANA-FARBER CANCER INSTITUTE, INC., priority 2020, published 2024)",
  "type_in_all_cases": "cell-based",
  "key": {"[1]": {"molecular_target": "T1, protein kinases (human kinome) (Homo sapiens, UniProt Q9UEE5)", "T1 sequence (Q9UEE5 1-414)": "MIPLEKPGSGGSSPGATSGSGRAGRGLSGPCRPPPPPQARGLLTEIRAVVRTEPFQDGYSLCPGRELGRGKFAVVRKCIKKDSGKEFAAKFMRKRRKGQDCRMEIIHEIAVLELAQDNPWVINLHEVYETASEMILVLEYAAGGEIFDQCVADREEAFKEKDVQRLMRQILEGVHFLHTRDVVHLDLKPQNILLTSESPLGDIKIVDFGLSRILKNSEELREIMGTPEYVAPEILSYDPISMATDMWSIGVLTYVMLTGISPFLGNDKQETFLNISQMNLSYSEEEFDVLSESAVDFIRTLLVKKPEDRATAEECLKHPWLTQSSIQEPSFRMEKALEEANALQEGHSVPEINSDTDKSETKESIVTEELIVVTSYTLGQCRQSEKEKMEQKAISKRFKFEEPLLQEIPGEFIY", "conditions": "STK17A Q9UEE5"}, "[2]": {"molecular_target": "protein kinases (human kinome) (Homo sapiens, UniProt Q14289)", "sequence (Q14289 whole entry)": "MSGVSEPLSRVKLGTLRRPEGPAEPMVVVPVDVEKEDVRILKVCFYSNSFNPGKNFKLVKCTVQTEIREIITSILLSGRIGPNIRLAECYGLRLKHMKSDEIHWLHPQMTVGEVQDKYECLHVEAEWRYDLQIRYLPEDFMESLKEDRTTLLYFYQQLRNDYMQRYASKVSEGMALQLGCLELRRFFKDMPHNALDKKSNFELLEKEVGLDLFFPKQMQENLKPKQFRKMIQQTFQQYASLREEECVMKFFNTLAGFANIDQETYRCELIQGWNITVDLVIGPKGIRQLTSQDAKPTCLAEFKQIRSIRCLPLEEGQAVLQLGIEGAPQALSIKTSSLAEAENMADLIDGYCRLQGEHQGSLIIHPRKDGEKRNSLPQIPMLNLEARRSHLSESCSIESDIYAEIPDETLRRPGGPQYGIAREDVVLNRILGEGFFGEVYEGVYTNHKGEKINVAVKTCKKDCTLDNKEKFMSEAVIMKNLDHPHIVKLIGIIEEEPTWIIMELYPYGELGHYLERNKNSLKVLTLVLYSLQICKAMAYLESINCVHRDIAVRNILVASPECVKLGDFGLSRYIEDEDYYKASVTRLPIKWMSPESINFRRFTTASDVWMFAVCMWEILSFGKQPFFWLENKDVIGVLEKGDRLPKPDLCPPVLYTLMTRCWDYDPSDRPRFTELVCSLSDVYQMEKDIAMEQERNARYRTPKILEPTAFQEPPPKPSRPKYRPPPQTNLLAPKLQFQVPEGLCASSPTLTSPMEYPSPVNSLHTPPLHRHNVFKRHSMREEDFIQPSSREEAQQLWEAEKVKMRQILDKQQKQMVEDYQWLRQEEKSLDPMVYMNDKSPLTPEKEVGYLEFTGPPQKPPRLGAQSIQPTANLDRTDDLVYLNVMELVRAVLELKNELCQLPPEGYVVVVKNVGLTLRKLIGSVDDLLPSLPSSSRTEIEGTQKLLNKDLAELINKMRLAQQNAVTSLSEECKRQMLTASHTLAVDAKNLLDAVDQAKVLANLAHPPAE", "conditions": "for logFC: PTK2B (Q14289-1) protein abundance, degrader vs DMSO, down; for logFC PTK2B: accession Q14289-1, experiment wp045, direction of change down"}, "[3]": {"molecular_target": "protein kinases (human kinome) (Homo sapiens, UniProt P45984)", "sequence (P45984 whole entry)": "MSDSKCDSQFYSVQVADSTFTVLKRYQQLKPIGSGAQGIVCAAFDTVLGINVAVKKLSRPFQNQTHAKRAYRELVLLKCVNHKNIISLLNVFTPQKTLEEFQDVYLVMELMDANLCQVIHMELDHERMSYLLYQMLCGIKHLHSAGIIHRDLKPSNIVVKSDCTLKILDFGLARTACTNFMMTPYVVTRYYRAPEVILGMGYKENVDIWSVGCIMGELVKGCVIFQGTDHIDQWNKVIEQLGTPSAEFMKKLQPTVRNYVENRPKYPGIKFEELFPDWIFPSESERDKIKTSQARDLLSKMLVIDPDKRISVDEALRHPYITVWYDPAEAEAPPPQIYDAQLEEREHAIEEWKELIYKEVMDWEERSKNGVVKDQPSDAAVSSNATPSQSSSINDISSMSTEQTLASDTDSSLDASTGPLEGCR", "conditions": "MAPK9 P45984-1"}},
  "note": "Where two headings read alike, the source gives them in different places.",
  "data": [
    {"smiles": "O=C(COc1cccc2c1C(=O)N(C1CCC(=O)NC1=O)C2=O)NCCCCCCCN1CCc2cc(Nc3ncc(C4CC4)c(NCCCNC(=O)C4CCC4)n3)ccc2C1", "note": "(centres unmarked) [BSJ.04.178]", "values": [
      {"measurement": "logFC", "setting": "[1]; experiment wp134", "result": "−0.7107"},
      {"measurement": "logFC STK17A", "setting": "[1]; experiment wp134", "result": "−0.7107"}
    ]},
    {"smiles": "Cc1ncsc1-c1ccc([C@H](C)NC(=O)[C@@H]2C[C@@H](O)CN2C(=O)[C@@H](NC(=O)CCCCCN2CCc3cc(Nc4ncc(C5CC5)c(NCCCNC(=O)C5CCC5)n4)ccc3C2)C(C)(C)C)cc1", "note": "[BSJ.05.026]", "values": [
      {"measurement": "logFC", "setting": "[1]; experiment wp195", "result": "−0.5209"},
      {"measurement": "logFC STK17A", "setting": "[1]; experiment wp195", "result": "−0.5209"}
    ]},
    {"smiles": "CS(=O)(=O)Nc1cccc(-c2csc3cnc(Nc4ccc(N5CCN(CCCCCOc6cccc7c6C(=O)N(C6CCC(=O)NC6=O)C7=O)CC5)cc4)nc23)c1", "note": "(centres unmarked) [DB0614, N-(3-(2-((4-(4-(5-((2-(2,6-Dioxopiperidin-3-yl)-1,3-dioxoisoindolin-4-yl)oxy)pentyl)piperazin-1-yl)phenyl)amino)thieno[3,2-d]pyrimidin-7-yl)phenyl)methanesulfonamide]", "values": [
      {"measurement": "logFC", "setting": "[2]", "result": "−1.425"},
      {"measurement": "logFC PTK2B", "setting": "[2]", "result": "−1.425"},
      {"measurement": "logFC", "setting": "[1]; experiment wp045", "result": "−1.128"},
      {"measurement": "logFC STK17A", "setting": "[1]; experiment wp045", "result": "−1.128"},
      {"measurement": "logFC", "setting": "[1]; experiment wp117", "result": "−0.969"},
      {"measurement": "logFC STK17A", "setting": "[1]; experiment wp117", "result": "−0.969"},
      {"measurement": "logFC", "setting": "[3]; experiment wp045", "result": "−0.5244"},
      {"measurement": "logFC MAPK9", "setting": "[3]; experiment wp045", "result": "−0.5244"},
      {"measurement": "logFC", "setting": "[3]; experiment wp117", "result": "−0.564"},
      {"measurement": "logFC MAPK9", "setting": "[3]; experiment wp117", "result": "−0.564"}
    ]},
    {"smiles": "Cc1ccc(NC(=O)c2cccc(C(F)(F)F)c2)cc1N1Cc2cnc(Nc3ccc(N4CCN(CCCCCCOc5cccc6c5C(=O)N(C5CCC(=O)NC5=O)C6=O)CC4)nc3)nc2N(C)C1=O", "note": "(centres unmarked) [DB0663]", "values": [
      {"measurement": "logFC", "setting": "[2]", "result": "−1.961"},
      {"measurement": "logFC PTK2B", "setting": "[2]", "result": "−1.961"},
      {"measurement": "logFC", "setting": "[3]; experiment wp045", "result": "−0.598"},
      {"measurement": "logFC MAPK9", "setting": "[3]; experiment wp045", "result": "−0.598"}
    ]},
    {"smiles": "Cc1ccc(NC(=O)c2cccc(C(F)(F)F)c2)cc1N1Cc2cnc(Nc3ccc(N4CCN(CCCCC(=O)N[C@H](C(=O)N5C[C@H](O)C[C@H]5C(=O)N[C@@H](C)c5ccc(-c6scnc6C)cc5)C(C)(C)C)CC4)nc3)nc2N(C)C1=O", "note": "[DB1113]", "values": [
      {"measurement": "logFC", "setting": "[3]; experiment wp168", "result": "−1.216"},
      {"measurement": "logFC MAPK9", "setting": "[3]; experiment wp168", "result": "−1.216"}
    ]},
    {"smiles": "C[C@@H]1C[C@@H](O)c2ncnc(N3CCN(C(=O)[C@H](CNCCCCCCCCCCc4cccc5c4C(=O)N(C4CCC(=O)NC4=O)C5=O)c4ccc(Cl)cc4)CC3)c21", "note": "(some centres unmarked) [INY.03.041.01]", "values": [
      {"measurement": "logFC", "setting": "[1]; experiment wp118", "result": "−0.4361"},
      {"measurement": "logFC STK17A", "setting": "[1]; experiment wp118", "result": "−0.4361"},
      {"measurement": "logFC STK17A", "setting": "[1]; experiment wp135, 8 hr", "result": "−0.497"}
    ]},
    {"smiles": "Cc1cnc(Nc2ccc(N3CCN(CCCCCCC(=O)N[C@H](C(=O)N4C[C@H](O)C[C@H]4C(=O)N[C@@H](C)c4ccc(-c5scnc5C)cc4)C(C)(C)C)CC3)cc2)nc1Nc1cccc(S(=O)(=O)NC(C)(C)C)c1", "note": "[JWG.123]", "values": [
      {"measurement": "logFC", "setting": "[1]; experiment wp195", "result": "−0.6451"},
      {"measurement": "logFC STK17A", "setting": "[1]; experiment wp195", "result": "−0.6451"}
    ]},
    {"smiles": "CS(=O)(=O)Nc1cccc(-c2csc3cnc(Nc4ccc(N5CCN(CCOCCOCCOc6cccc7c6C(=O)N(C6CCC(=O)NC6=O)C7=O)CC5)cc4)nc23)c1", "note": "(centres unmarked) [RSS0628]", "values": [
      {"measurement": "logFC", "setting": "[2]", "result": "−1.517"},
      {"measurement": "logFC PTK2B", "setting": "[2]", "result": "−1.517"},
      {"measurement": "logFC", "setting": "[1]; experiment wp045", "result": "−1.48"},
      {"measurement": "logFC STK17A", "setting": "[1]; experiment wp045", "result": "−1.48"}
    ]}
  ]
}
